In general, MIC refers to the lowest concentration found to suppress growth.

Square brackets hold non-standard residues; d marks the D form. Peptide text beside a SMILES is read from it. * marks the point of attachment. 2Abz = Nc1ccccc1C(=O)O; Bz = O=C(c1ccccc1)*

These results are taken from paper PMC6972728, “Anthranilamide-based Short Peptides Self-Assembled Hydrogels as Antibacterial Agents” (Scientific Reports, 2020).

For one data set, the system named is S. aureus. The note with it: cited from earlier work. The method, then:
With a complete understanding of the hydrogel ultrastructure now in-hand, the antibacterial activity of N-acetyl 1, N-benzoyl 2 and N-naphthoyl 3 was assessed, in order to evaluate the effect of increased hydrophobicity on antibacterial activity. Further, the stiffest (BA 9) and softest (methyl 6) of the remaining gelators were tested to discern the relationship of hydrogel stiffness to antimicrobial activity. Staphylococcus aureus, the most common causative organism for skin and soft tissue infections, was chosen as the bacterial strain to assess the hydrogels antibacterial activity. Thes ...

The test system of a further data set is HEK293T cells. In words: Contact cytotoxicity of hydrogels, Alamar Blue colorimetric assay. It is filed as cell-based. The note with it: hydrogels at 0.25, 0.5 and 1% (w/v), cells seeded on hydrogel, 24 h, repeated at least three times. The method, then: With this in mind, the cytotoxicity of lead candidates N-benzoyl 2, N-naphthoyl 3, and BA 9 (para) from the antibacterial studies were examined against HEK293T cells, as a robust mammalian cell model. As the antibacterial activity of the 2, 3 and 9 was evaluated in the gel phase, contact cytotoxicity of hydrogels at concentrations of 0.25, 0.5, and 1% (w/v) was examined.
Similar to previously reported method, cytotoxicity measurement was performed using an Alamar Blue colorimetric assay on HEK293T cells. HEK293T cells were passaged using standard cell culture procedures. Cells were detached with trypsin and centrifuged (1000 rpm for 3 min). After supernatant was removed, the cells were re-suspended in Dulbecco’s Modified Eagle Medium (DMEM) at a concentration of 60,000 cells/mL. Cells were seeded onto hydrogels at a concentration of 6,000 cells/well. Hydrogels were prepared as described above and 100 µL cast into the wells of a 96 well plate in triplicate. After incubating overnight, 100 µL media was added to the set hydrogels and incubated overnight. The following day, excess media was aspirated and cells seeded atop the hydrogels as above. After incubation for 24 hours, 10 µL Alamar Blue was added to each well, followed by further incubation for another 4 hours. […] BioRad Benchmark plate reader was used to measure the absorbance at 570 nm and 596 nm. […]
A general note: Alamar Blue is a resazurin reagent that responds to reducing activity.

Data set [1] is described as follows: Temperature dependent CD spectroscopy (thermal denaturation). It is filed as physicochemical. The note with it: temperature increased from 25 °C to 60 °C; diluted hydrogel. On the procedure: In addition, CD spectroscopy was also used as a tool to investigate gradual thermal denaturation of anthranilamide-based short peptides.
The anthranilamide-based hydrogels were prepared at 0.8% (w/v) and were diluted 10 times before being transferred into a 0.5 mm path length cuvette. Meanwhile, for the concentration dependence, the hydrogel made from N-benzoyl 2 at 0.8% (w/v) was diluted to make up concentrations ranging from 0.058 mM – 0.470 mM before being transferred into a 0.5 mm path length cuvette.
CD spectrum were obtained using a ChirascanPlus CD spectrometer (Applied Photophysics, UK) scanning wavelengths of 180–500 nm with a bandwidth of 1 nm, 0.6 s per point, and step of 1 nm[22]. The outcome of three experiments were then averaged and plotted into a single plot value. The high tension (HT) value of each experiment was maintained to be below 600 mV (Fig. S17).

Data set [2] is described as follows: Hydrogel formation, critical gel concentration and gelation time by vial inversion test. It is filed as physicochemical. The text has this:
Several triggers such as physical stimuli, pH switch, solvent switch, or a combination of these, were employed to assess the self-assembly of compounds 1–11 in water. Initially, hydrogel formation of compounds 1–11, at 1% (w/v), was investigated using a combination of pH switch and temperature switch. The compounds were heated in dilute sodium hydroxide (NaOH) in order to deprotonate the carboxylic acid group at the C-terminus of the short peptides.
Compared to a mineral acid, GdL promotes the formation of a homogenous hydrogel due to its slow hydrolysis and fast dissolution rate in water[39],[40].
In addition, the effect of salt which can induce gelation in basic peptide solutions[41], due to high ionic was also investigated for peptides 1–11.
In a final attempt to induce gelation in peptides 4, 7 and 11, a solvent switch method using dimethyl sulfoxide (DMSO), methanol, or ethanol as co-solvent was employed[42]–[47]. […] Given that these hydrogels were designed with antibacterial applications in mind, due to the potential toxicity concerns arising from the use of organic co-solvents, further characterisation of peptides 4, 7 and 11 was not carried out.
The critical gel concentration (CGC) represents the minimum amount of the anthranilamide-based short peptide required to form a hydrogel. The CGC of anthranilamide-based short peptides were qualitatively assessed by varying the short peptide concentrations and conducting vial inversion test[48]–[50]. […] Here, gelation time represents the time required for these short peptides, at 1% (w/v), to form self-supporting hydrogels as assessed through the vial inversion test.
To a pre-weighed compound in a glass vial, 1 M NaOH (2–8 molar equiv.) was added followed by addition of Mili-Q water. The suspension was then heated and vortexed vigorously for 15 minutes to completely dissolve the compound. In the case of N-acetyl 1, N-benzoyl 2, N-naphthoyl 3, fluoro 5 and methyl 6, these clear solutions were left to cool to room temperature for 1–30 minutes. GdL (2–3 equiv.) was added to a solution of compounds 7–11 in NaOH. […]

Experiment in data set [3]: not given
This is another data set of the same source.

Consider `[Na+].[OH-]` [NaOH, sodium hydroxide], for which the minimum inhibitory concentration (MIC) with S. aureus was 7500 µg/mL.

Compound `O=C(Nc1ccccc1C(=O)N[C@@H](Cc1ccccc1)C(=O)N[C@@H](Cc1ccccc1)C(=O)O)c1ccccc1` [compound 2] ({Bz-2Abz}-Phe-Phe-OH) registered a Gʹ (stiffness) of 16.9 kPa. Further, the “Cytotoxicity towards HEK cells” value with HEK293T cells is reported as “moderate cytotoxicity”. In addition, the “Thermal stability of ß-sheet secondary structure (CD)” value in data set [1] is “no significant conformational changes”.

As to `O=C(Nc1ccccc1C(=O)N[C@@H](Cc1ccccc1)C(=O)N[C@@H](Cc1ccccc1)C(=O)O)c1ccc2ccccc2c1` [compound 3], the Gʹ (stiffness) was determined as 5.7 kPa. Besides, the “Cytotoxicity towards HEK cells” value in the data set on HEK293T cells was “poor cell viability”.

For `O=C(N[C@@H](Cc1ccccc1)C(=O)N[C@@H](Cc1ccccc1)C(=O)O)c1ccccc1NS(=O)(=O)c1cccc2ccccc12` [compound 4], the Hydrogel formation outcome is “remained as clear solutions” in data set [2] (1% (w/v), heated in dilute NaOH, cooled to room temperature (pH switch and temperature switch), up to 48 hours); “white precipitate” in data set [2] (3 equivalents of GdL added to basic solution); “gels were observed only for the first 5 minutes” in data set [2] (solvent switch, DMSO: water at 1% w/v).

`CC(=O)Nc1ccccc1C(=O)N[C@@H](Cc1ccccc1)C(=O)N[C@@H](Cc1ccccc1)C(=O)O` (Ac-[2Abz]-Phe-Phe-OH) yielded an amide I peak (disordered coil) in data set [3] of 1650 cm⁻¹.
